Experimental data reported in patent publication US7129232B2, “Cephem compounds” (Astellas Pharma Inc., priority 2002, dated 2006).
≈ marks a conversion by molar mass, not a printed value.

Tested on: Pseudomonas aeruginosa FP 1380
Assay: In vitro antibacterial activity (MIC) by the two-fold agar-plate dilution method
Assay type: cell-based
Conditions: test strain Pseudomonas aeruginosa FP 1380, heart infusion agar, incubation at 37° C. for 20 hours; for MIC: FP1380, read-out: MIC (minimal inhibitory concentration)
Description: In vitro antibacterial activity was determined by the two-fold agar-plate dilution method as described below.
One loopful of an overnight culture of each test strain in Trypticase-soy broth (10^6 viable cells per ml) was streaked on heart infusion agar (HI-agar) containing graded concentrations of representative test compound, and the minimal inhibitory concentration (MIC) was expressed in μg/ml after incubation at 37° C. for 20 hours.

MIC	MIC (minimal inhibitory concentration)	SMILES
1 µg/mL	–	Cn1c(N)c(NC(=N)N)c[n+]1CC1=C(C(=O)O)N2C(=O)[C@@H](NC(=O)/C(=N\OC(C)(C)C(=O)O)c3nsc(N)n3)[C@H]2SC1.O=S(=O)([O-])O [Compound (e), 7β-[(Z)-2-(5-amino-1,2,4-thiadiazol-3-yl)-2-(1-carboxy-1-methylethoxyimino)acetamido]-3-(3-amino-4-guanidino-2-methyl-1-pyrazolio)methyl-3-cephem-4-carboxylic acid hydrogen sulfate]
128 µg/mL (≈ 234 µM)	–	CC(C)(O/N=C(\C(=O)N[C@@H]1C(=O)N2C(C(=O)[O-])=C(C[n+]3ccccc3)CS[C@H]12)c1csc(N)n1)C(=O)O [Ceftazidime, reference compound]
2 µg/mL	–	Cn1c(N)c(NC(=O)NCCN)c[n+]1CC1=C(C(=O)O)N2C(=O)[C@@H](NC(=O)/C(=N\OC(C)(C)C(=O)O)c3nsc(N)n3)[C@H]2SC1.O=S(=O)([O-])O [Compound (d), 7β-[(Z)-2-(5-amino-1,2,4-thiadiazol-3-yl)-2-(1-carboxy-1-methylethoxyimino)acetamido]-3-{3-amino-4-[3-(2-aminoethyl)ureido]-2-methyl-1-pyrazolio}methyl-3-cephem-4-carboxylic acid hydrogen sulfate]
1 µg/mL (≈ 1.53 µM)	–	Cn1c(N)c(NC(=O)CCN)c[n+]1CC1=C(C(=O)[O-])N2C(=O)[C@@H](NC(=O)/C(=N\OC(C)(C)C(=O)O)c3nsc(N)n3)[C@H]2SC1 [Compound (b), 7β-[(Z)-2-(5-amino-1,2,4-thiadiazol-3-yl)-2-(1-carboxy-1-methylethoxyimino)acetamido]-3-[3-amino-4-(3-aminopropionamido)-2-methyl-1-pyrazolio]methyl-3-cephem-4-carboxylate]
2 µg/mL	–	Cn1c(N)c(NC(=O)CN)c[n+]1CC1=C(C(=O)O)N2C(=O)[C@@H](NC(=O)/C(=N\OC(C)(C)C(=O)O)c3nsc(N)n3)[C@H]2SC1.O=S(=O)([O-])O [Compound (c), 7β-[(Z)-2-(5-amino-1,2,4-thiadiazol-3-yl)-2-(1-carboxy-1-methylethoxyimino)acetamido]-3-[3-amino-4-(aminoacetyl)amino-2-methyl-1-pyrazolio]methyl-3-cephem-4-carboxylic acid hydrogen sulfate]
–	2 µg/mL (≈ 3.01 µM)	CC(C)(O/N=C(\C(=O)N[C@@H]1C(=O)N2C(C(=O)[O-])=C(C[n+]3cc(NC(=O)CCN)c4n3CCN4)CS[C@H]12)c1nsc(N)n1)C(=O)O [Compound (a), 7β-[(Z)-2-(5-amino-1,2,4-thiadiazol-3-yl)-2-(1-carboxy-1-methylethoxyimino)acetamido]-3-[7-(3-aminopropionamido)-2,3-dihydro-5-(1H-imidazo[1,2-b]pyrazolio)]methyl-3-cephem-4-carboxylate]
